The assay deals with RIV aptamer (DNA, aptamer) TAGGGAAGAGAAGGACATATGATGACTCACAACTGGACGAACGTACTTATCCCCCCCAATCACTAGTGAATT
Description: square-wave voltammetry aptasensor. The settings on record: K+ 0.01 M (KCl); [Fe(CN)6]3−/4−; concentration tested not stated.
Turning to `N=C(N)NCCC[C@H](N)C(=O)O`, the binding result is “weak”. As for `OC[C@H]1OC(O)[C@H](O)[C@@H](O)[C@@H]1O` (some centres unmarked), the entry is “no”.

As to `O=C(O)[C@@H]1CCCN1`, the binding entry was “weak”. For `NCC(=O)O` the value was “no”; for `N[C@@H](CS)C(=O)O`, “weak”.

For the origin of these results see article PMC9599351 (2022).
